Measured values as given in patent EP1311531B1, “STEROID DERIVED ANTIBIOTICS” (Brigham Young University, priority 2000, dated 2002).
Converted amounts (≈) assume the structure as drawn. Like-named read-outs stand apart in the source and are kept apart here.

Assays:
[1] = test system: Klebsiella pneumonia ATCC 13883; assay: Sensitization to erythromycin, novobiocin or rifampicin (permeabilization, FIC); format: cell-based, Klebsiella pneumoniae
[2] = test system: Staphylococcus aureus ATCC 25923; assay: MIC and MBC measurement; format: cell-based; conditions: ATCC25923, Table 10, Staphylococcus aureus ATCC 25923; for MIC: read-out: MIC
Text: (§1) General: Microorganisms. Reference strains were purchased from the American Type Culture Collection (Rockville, MD) or Bactrol disks from Difeo Laboratories (Detroit, MI). The following specific ATCC strains were used: 10798 Escherichia coli, 25922 Escherichia coli, 13883 Klebsiella pneumoniae, 27853 Pseudomonas aeruginosa, 14028 Salmonella typhimurium, 29212 Enterococcus faecalis, 25923 Staphylococcus aureus, 19615 Streptococcus pyogenes, and 90028 Candida albicans. Bacterial strains were maintained on Mueller-Hinton agar plates, and Candida albicans was maintained on Sabouraud Dextrose agar plates.
(§2) Tryptic soy broth (TSB) was made by dissolving 27.5 grams of tryptic soy broth without dextrose (DIFCO Laboratories) in 1 liter of deionized water and sterilizing at 121 °C for 15 minutes. Solid agar (TSA) plates were made by dissolving 6.4 grams of tryptic soy broth and 12 grams of agar (purified grade, Fischer Scientific) in 800 mL of deionized water and sterilizing at 121 °C for 20 minutes. Aliquots (20 mL) of the homogeneous solution were then poured in sterile plastic petri dishes (100 x 15 mm, Fisher Scientific). Solutions of compounds were made by dissolving the HCl salt of the respective compound into an appropriate amount of deionized and sterilized water followed by microfiltration.
(§3) Aliquots of 1 mL of the suspension were added to test tubes containing 1 mL TSB and incrementally varied concentrations of cholic acid derivatives and/or erythromycin or novobiocin. In the sensitization experiments, erythromycin or novobiocin were added 15 minutes later than the cholic acid derivatives. The samples were subjected to stationary incubation at 37°C for 24 hours. Sample turbidity was determined by measuring absorption at 760 nm (HP 8453 UV-Visible Chemstation, Hewlett Packard). Additionally, an alliquot from each of the samples showing no measurable turbidity was subcultured on TSA plates (alliquots were diluted to provide fewer than 300 CFU). Colonies that grew on the subculture after overnight incubation were counted and the number of CFU/mL in the samples were calculated. The calculated values were compared to the number of CFU/mL in the original inoculum. […]

[3] = test system: Escherichia coli ATCC 25922; assay: MIC and MBC measurement; format: cell-based; conditions: Escherichia coli; for MIC: read-out: MIC
Text: as §1, §2, §3

[4] = test system: Escherichia coli ATCC 25922; conditions: ATCC25922
Experimental: (§7) FICs can be performed by checkerboard titrations of compounds in one dimension of a microtiter plate, and of antibiotics in the other dimension, for example. The FIC is calculated by looking at the impact of one antibiotic on the MIC of the other and vice versa. […] As used herein, FIC can be determined as follows: FIC = (MIC(compound in combination))/(MIC(compound alone)) + (MIC(antibiotic in combination))/(MIC(antibiotic alone)) [formula]
(§8) Aliquots of 1 mL of the suspension were added to test tubes containing 1 mL TSB and incrementally varied concentrations of cholic acid derivatives and/or erythromycin or novobiocin. […] Additionally, an alliquot from each of the samples showing no measurable turbidity was subcultured on TSA plates (alliquots were diluted to provide fewer than 300 CFU). Colonies that grew on the subculture after overnight incubation were counted and the number of CFU/mL in the samples were calculated. The calculated values were compared to the number of CFU/mL in the original inoculum.

[5] = test system: Escherichia coli ATCC 25922; assay: Sensitization to erythromycin, novobiocin or rifampicin (permeabilization, FIC); conditions: for MBC: Escherichia coli, ATCC25922; for concentration required to lower the MIC of erythromycin from 60 µg/mL to 1 µg/mL: Table 5, E. coli (ATCC 25922), with erythromycin; for FIC / concentration required for bacterial growth inhibition: Table 13, with rifampicin (order of b151), Escherichia coli ATCC 25922
Experimental: as §7, §8

[6] = Minimum hemolytic concentration (MHC); format: cell-based; conditions: Table 10
Experimental: Minimum inhibition concentrations (MIC) and minimum hemolytic concentrations (MHC) were measured as described in Li et al., Antimicrob. Agents. Chemother., 1999, 43, 1347. […]

E. coli (ATCC 10798) = assay: Sensitization to erythromycin or novobiocin (outer membrane permeabilization, FIC); format: cell-based, Escherichia coli; conditions: for MBC: Escherichia coli; for MBC / concentration required to lower the MIC of erythromycin from 70 µg/mL to 1 µg/mL: E. coli (ATCC 10798); for concentration required to lower the MIC of erythromycin from 70 µg/mL to 1 µg/mL: Table 2
Experimental: (§4) FICs can be performed by checkerboard titrations of compounds in one dimension of a microtiter plate, and of antibiotics in the other dimension, for example. The FIC is calculated by looking at the impact of one antibiotic on the MIC of the other and vice versa. […] Preferably, an FIC of less than 0.5 is obtained for synergism. As used herein, FIC can be determined as follows: FIC = (MIC(compound in combination))/(MIC(compound alone)) + (MIC(antibiotic in combination))/(MIC(antibiotic alone)) [formula]
(§5) Aliquots of 1 mL of the suspension were added to test tubes containing 1 mL TSB and incrementally varied concentrations of cholic acid derivatives and/or erythromycin or novobiocin. In the sensitization experiments, erythromycin or novobiocin were added 15 minutes later than the cholic acid derivatives. The samples were subjected to stationary incubation at 37°C for 24 hours. Sample turbidity was determined by measuring absorption at 760 nm (HP 8453 UV-Visible Chemstation, Hewlett Packard). Additionally, an alliquot from each of the samples showing no measurable turbidity was subcultured on TSA plates (alliquots were diluted to provide fewer than 300 CFU). Colonies that grew on the subculture after overnight incubation were counted and the number of CFU/mL in the samples were calculated. The calculated values were compared to the number of CFU/mL in the original inoculum.
They were also tested for the ability to permeabilize the outer membrane of Gram-negative bacteria, causing sensitization to hydrophobic antibiotics that cannot cross the outer membrane. The permeabilization of the outer membrane was measured using erythromycin and novobiocin.

[7] = test system: Salmonella typhimurium ATCC 14028; assay: Sensitization to erythromycin, novobiocin or rifampicin (permeabilization, FIC); format: cell-based
Experimental: as §4, §5
(§6) Concentrations of 0.5, 1.0 or 3.0 µg/mL of these antibiotics were used, and the concentrations of the cholic acid derivatives required to inhibit bacterial growth of Gram-negative strains were determined.

[8] = test system: Pseudomonas aeruginosa ATCC 27853; assay: as above; format: cell-based; conditions: for MBC: Pseudomonas aeruginosa; for MBC / concentration required to lower the MIC of erythromycin from 240 µg/mL to 5 µg/mL: Table 7, with erythromycin; for MBC / concentration required to lower the MIC of erythromycin from 240 µg/mL to 5 µg/mL / concentration required to lower the MIC of novobiocin from >500 µg/mL to 1 µg/mL: P. aureginosa (ATCC 27853); for concentration required to lower the MIC of novobiocin from >500 µg/mL to 1 µg/mL: Table 8, with novobiocin
Experimental: as §4, §5, §6

[9] = Table 12, with novobiocin (order of b151), Klebsiella pneumonia ATCC 13883
[10] = Table 13, with rifampicin (order of b151), Klebsiella pneumonia ATCC 13883
[11] = ATCC25922, Table 4, E. coli (ATCC 25922)
[12] = ATCC25922, Table 10, Escherichia coli ATCC 25922
[13] = ATCC10798, Table 2, with erythromycin
[14] = ATCC10798, Table 3, with novobiocin
[15] = Table 11, with erythromycin (order of b151)
[16] = Table 12, with novobiocin (order of b151)
[17] = Table 12, with novobiocin (order of b151), Pseudomonas aeruginosa ATCC 27853
[18] = Table 13, with rifampicin (order of b151), Pseudomonas aeruginosa ATCC 27853^b (footnote b not given)
[19] = Table 9, Escherichia coli (ATCC 10798)

Row | Compound | FIC ([1]; ATCC13883) | concentration required for bacterial growth inhibition ([1]; ATCC13883) [µg/mL] | concentration required for bacterial growth inhibition [1, 9] [µg/mL] | FIC [1, 10] | concentration required for bacterial growth inhibition [1, 10] [µg/mL] | MBC [2] [µg/mL] | MIC [2] [µg/mL] | MBC [3, 11] [µg/mL] | MIC [3, 11] [µg/mL] | MBC [3, 12] [µg/mL] | MIC [3, 12] [µg/mL] | concentration required for bacterial growth inhibition [4] [µg/mL] | MHC [6] [µg/mL] | MBC (E. coli (ATCC 10798); [13]) [µg/mL] | concentration required to lower the MIC of erythromycin from 70 µg/mL to 1 µg/mL (E. coli (ATCC 10798); with erythromycin) [µg/mL] | FIC [7, 15] | concentration required for bacterial growth inhibition [7, 15] [µg/mL] | FIC ([8]; ATCC27853) | concentration required for bacterial growth inhibition ([8]; ATCC27853) [µg/mL] | concentration required to lower the MIC of erythromycin from 240 µg/mL to 5 µg/mL [8] [µg/mL] | also measured
1 | C[C@H](CCCN(C)Cc1ccccc1)[C@H]1CC[C@H]2[C@@H]3[C@H](OCCCN)C[C@@H]4C[C@H](OCCCN)CC[C@]4(C)[C@H]3C[C@H](OCCCN)[C@]12C [Compound 2] | 0.048 | 0.25 | 0.49 | 0.035 | 0.12 | 4.7 (≈ 7.02 µM) | 1 (≈ 1.49 µM) | 20 (≈ 29.9 µM) | 10 (≈ 14.9 µM) | 6.8 (≈ 10.2 µM) | 5.1 (≈ 7.62 µM) | 0.33 | 58 | 10 | 1 | 0.17 | 2.0 | 0.25 | 2.4 | 4 | MBC [5]: 5 µg/mL; concentration required to lower the MIC of erythromycin from 60 µg/mL to 1 µg/mL [5]: 1 µg/mL; FIC [5]: 0.22; concentration required for bacterial growth inhibition [5]: 0.80 µg/mL; MBC (E. coli (ATCC 10798); [14]): 16 µg/mL; FIC [7, 16]: 0.36; concentration required for bacterial growth inhibition [7, 16]: 4.5 µg/mL; MBC ([8]; ATCC27853): 25 µg/mL; concentration required to lower the MIC of novobiocin from >500 µg/mL to 1 µg/mL [8]: 4 µg/mL; concentration required for bacterial growth inhibition [8, 17]: 2.9 µg/mL; FIC [8, 18]: 0.086
2 | C[C@H](CCCN(C)Cc1ccccc1)[C@H]1CC[C@H]2[C@@H]3[C@H](OCCCNC(=N)N)C[C@@H]4C[C@H](OCCCNC(=N)N)CC[C@]4(C)[C@H]3C[C@H](OCCCNC(=N)N)[C@]12C [Compound 5] | 0.080 | 0.15 | – | – | – | 3.2 (≈ 4.02 µM) | 0.6 (≈ 0.755 µM) | 4 (≈ 5.03 µM) | 2 (≈ 2.52 µM) | 3.8 (≈ 4.78 µM) | 1.4 (≈ 1.76 µM) | – | 26 | 3 | 1 | 0.23 | 0.46 | 0.42 | 2.3 | 3 | FIC [4]: 0.31; MBC [5]: 1.5 µg/mL; concentration required to lower the MIC of erythromycin from 60 µg/mL to 1 µg/mL [5]: 1.5 µg/mL; MBC (E. coli (ATCC 10798); [14]): 4 µg/mL; MBC ([8]; ATCC27853): 10 µg/mL; concentration required to lower the MIC of novobiocin from >500 µg/mL to 1 µg/mL [8]: 6 µg/mL
3 | C[C@H](CCCO)[C@H]1CC[C@H]2[C@@H]3[C@H](OCCCN)C[C@@H]4C[C@H](OCCCN)CC[C@]4(C)[C@H]3C[C@H](OCCCN)[C@]12C [Compound 10] | 0.035 | 0.21 | 0.73 | 0.030 | 0.16 | 9.2 (≈ 16.3 µM) | 2 (≈ 3.53 µM) | – | – | 40 (≈ 70.7 µM) | 36 (≈ 63.6 µM) | 0.30 | 100 | 50 | 2 | 0.037 | 0.87 | 0.13 | 2.1 | 7 | FIC [5]: 0.085; concentration required for bacterial growth inhibition [5]: 0.70 µg/mL; (a) Concentration required to lower the MIC of erythromycin from 70 to 1 µg/mL (E. coli (ATCC 10798); [19]): 2.0 µg/mL; (b) MBC with 1 µg/mL erythromycin (E. coli (ATCC 10798); [19]): 50 µg/mL; (d) Concentration required to lower the MIC of novobiocin from >500 to 1 µg/mL (E. coli (ATCC 10798); [19]): 4.0 µg/mL; FIC^c (FIC values with erythromycin) (E. coli (ATCC 10798); [19]): 0.070; FIC^c (FIC values with novobiocin) (E. coli (ATCC 10798); [19]): 0.11; FIC [7, 16]: 0.052; concentration required for bacterial growth inhibition [7, 16]: 1.8 µg/mL; concentration required for bacterial growth inhibition [8, 17]: 5.3 µg/mL; FIC [8, 18]: 0.083
4 | C[C@H](CCCN(C)Cc1ccccc1)[C@H]1CC[C@H]2[C@@H]3[C@H](OCCN)C[C@@H]4C[C@H](OCCN)CC[C@]4(C)[C@H]3C[C@H](OCCN)[C@]12C [Compound 1] | 0.072 | 1.0 | 4.7 | 0.043 | 0.40 | 5.7 (≈ 9.09 µM) | 3.1 (≈ 4.94 µM) | 40 (≈ 63.8 µM) | 25 (≈ 39.9 µM) | 22 (≈ 35.1 µM) | 22 (≈ 35.1 µM) | 0.35 | 78 | 20 | 2 | 0.19 | 3.6 | 0.29 | 6.6 | 8 | MBC [5]: 14 µg/mL; concentration required to lower the MIC of erythromycin from 60 µg/mL to 1 µg/mL [5]: 2 µg/mL; FIC [5]: 0.099; concentration required for bacterial growth inhibition [5]: 0.74 µg/mL; MBC (E. coli (ATCC 10798); [14]): 34 µg/mL; FIC [7, 16]: 0.22; concentration required for bacterial growth inhibition [7, 16]: 4.4 µg/mL; MBC ([8]; ATCC27853): 45 µg/mL; concentration required to lower the MIC of novobiocin from >500 µg/mL to 1 µg/mL [8]: 6 µg/mL; concentration required for bacterial growth inhibition [8, 17]: 3.9 µg/mL; FIC [8, 18]: 0.096
